Measurements: PMC8922279, “Identification of β-Lactams Active against Mycobacterium tuberculosis by a Consortium of Pharmaceutical Companies and Academic Institutions” (ACS Infectious Diseases, 2022)

Legend:
Mtb H37Rv [1] = assay: MIC90 against replicating (R) Mtb H37Rv, with or without clavulanate; format: cell-based, Mycobacterium tuberculosis; conditions: Table S4; for Mtb H37Rv R + CLAV (MIC90): clavulanate 4 μg/mL; for Mtb H37Rv R (MIC90): no clavulanate
C. albicans = assay: Microbial spectrum, C. albicans; format: cell-based, Candida albicans; conditions: no clavulanate; Table S4
plasma proteins [2] = assay: Plasma protein binding (equilibrium dialysis), cynomolgus monkey; conditions: 2 μM
Mtb H37Rv [3] = assay: MIC90 against nonreplicating (NR, 4-stress) Mtb H37Rv, with or without clavulanate; format: cell-based, Mycobacterium tuberculosis; conditions: 4-stress nonreplicating, Table S4; for Mtb H37Rv NR + CLAV (MIC90): clavulanate 4 μg/mL; for Mtb H37Rv NR (MIC90): no clavulanate
Caco-2 cells = assay: Caco-2 permeability / efflux transporter substrate; conditions: for Caco-2 Mean Papp A to B / Caco-2 Mean Papp B to A: 3 μM, pH 7.4, 120 min; for Caco-2 Mean Recovery % A to B / Caco-2 Mean Recovery % B to A / Caco-2 Rank Papp / Caco-2 Efflux Ratio / Efflux Transporter Substrate: Caco-2
[4] = Stability in fasted simulated intestinal fluid (FaSSIF); conditions: pH 6.5, room temperature; for FaSSIF Stability, % remaining, 6h / FaSSIF Stability, % remaining, 24h: 10 μM
plasma proteins [5] = assay: Plasma protein binding (equilibrium dialysis), beagle dog; conditions: 2 μM
plasma proteins [6] = assay: Plasma protein binding (equilibrium dialysis), SD rat; conditions: 2 μM
plasma proteins [7] = assay: Plasma protein binding (equilibrium dialysis), human; conditions: 2 μM
P. aeruginosa = assay: Microbial spectrum, P. aeruginosa; format: cell-based, Pseudomonas aeruginosa; conditions: clavulanate 4 μg/mL; Table S4
E. coli = assay: Microbial spectrum, E. coli; format: cell-based, Escherichia coli; conditions: clavulanate 4 μg/mL; Table S4
plasma proteins [8] = assay: Plasma protein binding (equilibrium dialysis), CD-1 mouse; conditions: 2 μM
S. aureus = assay: Microbial spectrum, S. aureus; format: cell-based, Staphylococcus aureus; conditions: clavulanate 4 μg/mL; Table S4
[9] = Stability in simulated gastric fluid (SGF); conditions: for SGF Stability, % remaining, 1h / SGF Stability, % remaining, 24h: 10 μM, pH 1.2, room temperature
[10] = In vitro plasma stability, CD-1 mouse plasma; conditions: 37 °C, time point 120 min; for Plasma stability % Remaining, Mouse: 2 μM
[11] = In vitro plasma stability, cynomolgus monkey plasma; conditions: for Plasma stability % Remaining, Monkey: 2 μM, 37 °C, time point 120 min
[12] = Caco-2 permeability / efflux transporter substrate; conditions: human
[13] = In vitro plasma stability, human plasma; conditions: 37 °C, time point 120 min; for Plasma stability % Remaining, Human: 2 μM
[14] = In vitro plasma stability, beagle dog plasma; conditions: for Plasma stability % Remaining, Dog: 2 μM, 37 °C, time point 120 min
[15] = In vitro plasma stability, SD rat plasma; conditions: 37 °C, time point 120 min; for Plasma stability % Remaining, Rat: 2 μM
[16] = simulated gastric fluid (SGF), pH 1.2

SMILES | Mtb H37Rv R + CLAV (MIC90) (Mtb H37Rv [1]) [µM] | Mtb H37Rv R (MIC90) (Mtb H37Rv [1]) [µM] | C.albicans R (MIC90) (C. albicans) [µM] | Mtb H37Rv NR + CLAV (MIC90) (Mtb H37Rv [3]) [µM] | Mtb H37Rv NR (MIC90) (Mtb H37Rv [3]) [µM] | Caco-2 Mean Papp A to B (Caco-2 cells) | Caco-2 Mean Papp B to A (Caco-2 cells) | Caco-2 Mean Recovery % A to B (Caco-2 cells) [%] | Caco-2 Mean Recovery % B to A (Caco-2 cells) [%] | Caco-2 Rank Papp (Caco-2 cells) | FaSSIF Stability, % remaining, 6h [4] [%] | FaSSIF Stability, % remaining, 24h [4] [%] | P.aeruginosa R + CLAV (MIC90) (P. aeruginosa) [µM] | E.coli R + CLAV (MIC90) (E. coli) [µM] | S.aureus R + CLAV (MIC90) (S. aureus) [µM] | SGF Stability, % remaining, 1h [9] [%] | SGF Stability, % remaining, 24h [9] [%] | Plasma stability % Remaining, Mouse [10] [%] | Plasma stability % Remaining, Monkey [11] [%] | Plasma stability % Remaining, Human [13] [%] | further results
CC(=O)OCC1=C(C(=O)O)N2C(=O)[C@@H](NC(=O)CSc3ccncc3)[C@H]2SC1 [TBBL-0000063] | 1.9 | 13.1 | > 100 | > 100 | > 100 | < 0.41 10-6 cm/s | < 0.37 10-6 cm/s | < 87.73 | < 102.87 | Low | 102.47 | 62 | > 100 | > 100 | 0.8 | 87.31 | 27.14 | – | – | – | % bound to plasma, Cynomolgus Monkey (plasma proteins [2]): 0.0%; % bound to plasma, Beagle Dog (plasma proteins [5]): 27.8%; % bound to plasma, SD Rat (plasma proteins [6]): 42.4%; % bound to plasma, Human (plasma proteins [7]): 38.7%; % bound to plasma, CD-1 Mouse (plasma proteins [8]): 14.7%
C[C@@H](O)[C@H]1C(=O)N2C(C(=O)O)=C(S[C@@H]3CN[C@H](C(=O)Nc4cccc(C(=O)O)c4)C3)[C@H](C)[C@H]12 [Ertapenem, reference compound] | – | – | – | – | – | – | – | – | – | Low | – | – | – | – | – | – | – | – | – | – | remaining at 2 h, 2 μM ([10]; male, CD-1, mouse, plasma, Plasma stability % Remaining, Mouse): 74.2%; remaining at 2 h, 2 μM ([11]; monkey, plasma): 115%; Papp A→B at 120 min, 3 μM ([12]; Caco-2, pH 7.4): < 0.23 ×10⁻⁶ cm/s; Papp B→A at 120 min, 3 μM ([12]; Caco-2, pH 7.4): < 0.21 ×10⁻⁶ cm/s; recovery at 120 min, 3 μM ([12]; Caco-2, pH 7.4, Caco-2 Mean Recovery % A to B): < 116%; recovery at 120 min, 3 μM ([12]; Caco-2, pH 7.4, Caco-2 Mean Recovery % B to A): < 112%; remaining at 2 h, 2 μM ([13]; human, plasma, Plasma stability % Remaining): 77.5%; remaining at 6 h, 10 μM ([4]; fasted simulated intestinal fluid (FaSSIF), pH 6.5, FaSSIF Stability, % remaining, 6h): 86.8%; remaining at 24 h, 10 μM ([4]; fasted simulated intestinal fluid (FaSSIF), pH 6.5, FaSSIF Stability, % remaining, 24h): 85.8%; remaining at 2 h, 2 μM ([14]; beagle, dog, plasma): 70.7%; remaining at 2 h, 2 μM ([15]; SD, rat, plasma, Plasma stability % Remaining): 69.1%; remaining at 1 h, 10 μM [9, 16]: 0%; remaining at 24 h, 10 μM [9, 16]: 0%
CCCc1nnc(SCC2=C(C(=O)O)N3C(=O)[C@@H](NC(=O)Cc4ccc(C(=N)N)cc4)[C@H]3SC2)s1 [TBBL-0000314] | 0.8 | 14.1 | > 100 | > 100 | > 100 | < 0.07 10-6 cm/s | < 0.06 10-6 cm/s | < 94.56 | < 107.68 | Low | 101.85 | 95.17 | > 100 | > 100 | 1.6 | 76.41 | 1.85 | 76.2 | 103.9 | 77.2 | % bound to plasma, Cynomolgus Monkey (plasma proteins [2]): 60.1%; % bound to plasma, Beagle Dog (plasma proteins [5]): 46.7%; % bound to plasma, SD Rat (plasma proteins [6]): 84.6%; % bound to plasma, Human (plasma proteins [7]): 65.7%; % bound to plasma, CD-1 Mouse (plasma proteins [8]): 67.9%; Plasma stability % Remaining, Dog [14]: 77.0%; Plasma stability % Remaining, Rat [15]: 73.3%
Cn1c(SCC2=C(C(=O)O)N3C(=O)[C@@H](NC(=O)Cc4ccccc4CN)[C@H]3SC2)nnc(O)c1=O [TBBL-0000460] | 2 | 5.4 | > 200 | 85.6 | 69.3 | 0.16 10-6 cm/s | 0.24 10-6 cm/s | 97.79 | 106.35 | Low | 96.2 | 86.61 | > 200 | 13.4 | 4.6 | 102.88 | 85.68 | 88.8 | 25.6 | 90.4 | Caco-2 Efflux Ratio (Caco-2 cells): 1.52; Efflux Transporter Substrate (Caco-2 cells): Poor or no; % bound to plasma, Beagle Dog (plasma proteins [5]): 0.0%; % bound to plasma, SD Rat (plasma proteins [6]): 29.0%; % bound to plasma, Human (plasma proteins [7]): 15.9%; % bound to plasma, CD-1 Mouse (plasma proteins [8]): 16.1%; Plasma stability % Remaining, Dog [14]: 73.7%; Plasma stability % Remaining, Rat [15]: 92.4%
CC=CC(=O)OCC1=C(C(=O)O)N2C(=O)[C@@H](NC(=O)C(=NO)c3cccs3)[C@H]2SC1 [TBBL-0000058] | 1.1 | 8.7 | > 100 | 84.6 | 56.8 | < 0.38 10-6 cm/s | 0.63 10-6 cm/s | < 98.97 | 111.16 | Low | 114.21 | 66.32 | > 100 | 41.8 | 0.5 | 94.94 | 57.36 | 67.6 | 22.0 | 35.0 | Caco-2 Efflux Ratio (Caco-2 cells): > 1.68; Efflux Transporter Substrate (Caco-2 cells): Poor or no; Plasma stability % Remaining, Dog [14]: 81.2%; Plasma stability % Remaining, Rat [15]: 60.9%
CCc1nnc(SCC2=C(C(=O)O)N3C(=O)[C@@H](NC(=O)Cc4ccc(C5=NCCCN5)cc4)[C@H]3SC2)s1 [TBBL-0000317] | 1.1 | 22.3 | > 100 | > 100 | > 100 | – | – | – | – | – | 94.96 | 90.38 | > 100 | > 100 | 2.1 | 90.44 | 79.32 | 13.3 | 13.4 | 17.4 | Plasma stability % Remaining, Dog [14]: 31.5%; Plasma stability % Remaining, Rat [15]: 2.4%
CON=C(C(=O)N[C@@H]1C(=O)N2C(C(=O)O)=C(CSc3cccc[n+]3[O-])CS[C@H]12)c1csc(N)n1 [TBBL-0000539] | 1.9 | 2 | > 100 | 4.6 | 4.7 | < 0.10 10-6 cm/s | 0.31 10-6 cm/s | < 96.40 | 105.53 | Low | – | – | > 100 | 13.1 | 17.3 | 104.45 | 90.77 | 92.4 | 120.8 | 83.4 | % bound to plasma, Cynomolgus Monkey (plasma proteins [2]): 84.3%; Caco-2 Efflux Ratio (Caco-2 cells): > 3.03; Efflux Transporter Substrate (Caco-2 cells): Likely; % bound to plasma, Beagle Dog (plasma proteins [5]): 5.2%; % bound to plasma, SD Rat (plasma proteins [6]): 61.3%; % bound to plasma, Human (plasma proteins [7]): 56.9%; % bound to plasma, CD-1 Mouse (plasma proteins [8]): 20.9%; Plasma stability % Remaining, Dog [14]: 79.7%; Plasma stability % Remaining, Rat [15]: 98.2%
